Values joined by “and” are separate entries in the source; they are usually repeats but may differ in a detail not shown here. Equal values may be shown once. “Also recorded” adds a separate entry of the source.
Legend:
[1] = tested on: Panc-1 human pancreas tumors (oncogenic K-ras); assay: Panc-1 mouse xenograft model, tumor growth (Example 1); assay type: in vivo, female nude mice; conditions: Panc-1 xenograft; N=9 mice per group
Procedure: In this study, female nude mice were implanted subcutaneously (SC) by trocar with Panc-1 tumor fragments harvested from SC growing tumors in nude mice hosts. […] The day of treatment initiation was specified as Day 1. Vehicle control and FK228 were administered intravenously on a […] schedule (Days 1, 5, and 9). Gemcitabine was administered by an intraperitoneal injection on a […] schedule (Days 1, 4, 7, 10). Tumors were measured by Vernier calipers twice weekly.

[2] = tested on: PANC-1 human pancreatic tumor xenograft; assay: PANC-1 human pancreatic tumor xenograft tumor growth inhibition study (Example 3); assay type: in vivo, female nude mice (nu/nu); conditions: PANC-1 study
Excerpt: (§1) (Madison, Wis.). […] Tumor measurements were converted to cubic millimeter tumor volume using the formula^(5): […] TGI values for each treatment group are reported at study completion; these calculations are based on the final study day. […] Individual mice lacking palpable tumors were classified as undergoing complete regression (CR). Animals experiencing partial or complete tumor regressions were censored from TGI calculations. However, data from these animals was included in statistical analysis calculations. In addition, weight data from these animals was included in daily and final group calculations. Tumor Necrosis-Degree of tumor necrosis was rated at each tumor measurement using the following arbitrary index: […]

[3] = tested on: BxPC-3 human pancreatic tumor xenograft; assay: BxPC-3 human pancreatic tumor xenograft tumor growth inhibition study (Example 3); assay type: in vivo, female nude mice (nu/nu); conditions: BxPC-3 study; for % TGI: Day 29
Excerpt: as §1

acetylated histone 3 = assay: Tissue biomarker immunoblotting of PANC-1 xenograft tumors: acetylated histone 3; assay type: in vivo; conditions: PANC-1 tumors at study completion; FK228 5 mg/kg Q4Dx3, gemcitabine 80 mg/kg Q3Dx4, or both
Procedure: (§2) Specimen Collection: […] Tumor xenograft tissue and serum specimens were obtained from in vivo studies performed by the Preclinical Research Laboratory at the completion of the experiments. […] Serum was obtained from whole blood and stored frozen at -70° C. Tissue Biomarkers: Tumor levels of acetylated histone-4, histone-4, […] were quantified by immunoblotting as described. Briefly, frozen tissue was pulverized under liquid nitrogen and homogenized in hypotonic lysis buffer. Small aliquots of the extracts were used for analysis of protein concentration by micro-BCA assay with bovine serum albumin as a protein standard. An equal amount of extracts containing about 20-50 μg protein was electrophoresed in SDS polyacrylamide gels. Proteins were transferred to ImmunoBlot PVDF membrane and were probed with appropriate primary and secondary antibodies. The chemiluminescence signal was captured by autoradiography, quantified by densitometry and expressed as a ratio of actin in each sample lane. For each biomarker, means and standard errors were calculated in each treatment group. […] Following quantitative analysis of biomarker levels in each sample, the results were normalized for b-actin and expressed as percentages of untreated controls. […]

p21^waf = assay: Tissue biomarker immunoblotting of PANC-1 xenograft tumors: p21waf; assay type: in vivo; conditions: PANC-1 tumors at study completion; FK228 5 mg/kg Q4Dx3, gemcitabine 80 mg/kg Q3Dx4, or both
Procedure: as §2

acetylated histone 4 = assay: Tissue biomarker immunoblotting of PANC-1 xenograft tumors: acetylated histone 4; assay type: in vivo; conditions: PANC-1 tumors at study completion; FK228 5 mg/kg Q4Dx3, gemcitabine 80 mg/kg Q3Dx4, or both
Procedure: as §2

[4] = Animal weight and drug toxicity, PANC-1 study
Excerpt: (§3) Model Information—Female nude mice (nu/nu) between 5 and 6 weeks of age weighing approximately 20 grams were obtained from Harlan, Inc. (Madison, Wis.). PANC-1, obtained from the ATCC, is a pancreas tumor cell line originating from a person^(1-2). BxPC-3, obtained from the American Type Culture Collection (ATCC), is a pancreas tumor cell line originating from a person^(3-4). PANC-1 Study: Animals were implanted subcutaneously (SC) by trocar with fragments of PANC-1 harvested from SC growing tumors in nude mice hosts. When tumors grew to approximately 135 cubic millimeters (mm^3) in size (17 days following implantation, animals were pair-matched by tumor size into treatment and control groups; each treatment group contained nine mice. BxPC-3 Study: Animals were implanted subcutaneously (SC) by trocar with fragments of BxPC-3 harvested from SC growing tumors in nude mice hosts. When tumors grew to approximately 85 cubic millimeters (mm^3) in size (19 days following implantation), animals were pair-matched by tumor size into treatment and control groups; each treatment group contained nine mice. Animals in both studies were ear-tagged and followed individually throughout the experiment.
(§4) Study Design and Dosing—Initial doses were administered on Day 1 following pair-matching; both experiments were carried out as tumor growth inhibition (TGI) studies. Animals were dosed intravenously (IV) via tail vein with FK228 once every four days for three treatments (Q4Dx3) or by intraperitoneal (IP) injection with gemcitabine once every three days for four treatments (Q3Dx4), either alone or in combination, at the doses listed below (Table 1). To serve as a negative control, FK228 vehicle (2% ethanol, 8% propylene glycol, 90% 0.9% saline) was injected on a Q4Dx3 schedule.
(§5) Animal Weights—Individual and group mean weights±SD and percent weight change through Day 25 (PANC-1) or Day 29 (BxPC-3) were recorded twice weekly until study completion beginning Day 1. Final group mean weights±SD and group nadir values are reported; weight data from individual animals experiencing technical or drug-related deaths was censored from final group calculations.
(§6) Moribundity/Mortality—Animals were observed twice weekly for general moribundity and daily for mortality. Animal deaths were assessed as drug-related or technical based on factors including gross observation and weight loss; reported animal death information includes type, number, and day of death for each group.

c-Myc = assay: Tissue biomarker immunoblotting of PANC-1 xenograft tumors: c-Myc; assay type: in vivo; conditions: PANC-1 tumors at study completion; FK228 5 mg/kg Q4Dx3, gemcitabine 80 mg/kg Q3Dx4, or both; actin-normalized vs control
Procedure: as §2

[5] = Animal weight and drug toxicity, BxPC-3 study
Excerpt: as §3, §4, §5, §6

[6] = at the evaluated doses and schedules
[7] = Day 25, Gemcitabine 40 mg/kg IP Q3Dx4
[8] = Day 25, Gemcitabine 80 mg/kg IP Q3Dx4
[9] = Day 29, Gemcitabine 40 mg/kg IP Q3Dx4
[10] = Day 29, Gemcitabine 80 mg/kg IP Q3Dx4

For `Nc1ccn([C@@H]2O[C@H](CO)[C@@H](O)C2(F)F)c(=O)n1` [Gemcitabine, gemcitabine], the tumor regression [1] was “no regression”, the “#PR/CR” value ([2]; Gemcitabine 40 mg/kg IP Q3Dx4) was 1/9 and 1/0 and the “Activity according to NCI standards” value ([2]; Gemcitabine 40 mg/kg IP Q3Dx4) was “inactive”. For the same compound, the Tumor necrosis ([2]; Gemcitabine 40 mg/kg IP Q3Dx4) was 1/9 animals reported mild tumor necrosis and 4/9 reported moderate necrosis, the “#PR/CR” value ([2]; Gemcitabine 80 mg/kg IP Q3Dx4) was 0/9 and 0/0 and the “% TR” value ([2]; Gemcitabine 80 mg/kg IP Q3Dx4) was 0%. The “Activity according to NCI standards” value ([2]; Gemcitabine 80 mg/kg IP Q3Dx4) was “inactive”, the Tumor necrosis ([2]; Gemcitabine 80 mg/kg IP Q3Dx4) was 1/9 animals reported slight tumor necrosis, 2/9 reported mild tumor necrosis, and 1/9 reported moderate necrosis and the “calculated TGI values” [2, 6] was “less than 58%”. The “% TGI” value ([3]; Gemcitabine 40 mg/kg IP Q3Dx4) was 20%, the “% TGI” value ([3]; Gemcitabine 80 mg/kg IP Q3Dx4) was 9% and the “#PR/CR” value ([3]; Gemcitabine 40 mg/kg IP Q3Dx4) was 0/9 and 0/0. For the same compound, the “Activity according to NCI standards” value ([3]; Gemcitabine 40 mg/kg IP Q3Dx4) was “inactive”, the Tumor necrosis ([3]; Gemcitabine 40 mg/kg IP Q3Dx4) was 1/9 animals reported severe tumor necrosis and the “#PR/CR” value ([3]; Gemcitabine 80 mg/kg IP Q3Dx4) was 0/9 and 0/0. For the same compound, the “Activity according to NCI standards” value ([3]; Gemcitabine 80 mg/kg IP Q3Dx4) was “inactive”, the Tumor necrosis ([3]; Gemcitabine 80 mg/kg IP Q3Dx4) was 1/9 animals reported mild tumor necrosis and the “calculated TGI values” [3, 6] was “less than 58%”. The “acetylation of histone 3” value (acetylated histone 3) was “significantly inhibited”, the “p21^waf expression” value (p21^waf) was “downregulated; also recorded: down-regulated” and the “levels of acetylated histone 4 vs control” value (acetylated histone 4) was “on the control level”. For the same compound, the “Final weight data % change” value [4, 7] was “+7%”, the “Final weight data mean ± SD” value [4, 7] was 24±1 G and the “Final weight data % change” value [4, 8] was “+12%”. For the same compound, the “Final weight data mean ± SD” value [4, 8] was 26±3 G, the Drug deaths total ([4]; Gemcitabine 40 mg/kg IP Q3Dx4) was 0/9 and 0 and the “Weight nadir % change” value ([4]; Gemcitabine 40 mg/kg IP Q3Dx4) was −2%. For the same compound, the Weight nadir day ([4]; Gemcitabine 40 mg/kg IP Q3Dx4) was 11, the Drug deaths total ([4]; Gemcitabine 80 mg/kg IP Q3Dx4) was 0/9 and 0 and the “Weight nadir % change” value ([4]; Gemcitabine 80 mg/kg IP Q3Dx4) was −3%. The Weight nadir day ([4]; Gemcitabine 80 mg/kg IP Q3Dx4) was 11, the “extent of inhibition of c-Myc expression” value (c-Myc) was 50% and the “Final weight data % change” value [5, 9] was “+9%”. For the same compound, the “Final weight data mean ± SD” value [5, 9] was 25±3 G, the “Final weight data % change” value [5, 10] was “+1%” and the “Final weight data mean ± SD” value [5, 10] was 22±4 G. For the same compound, the Drug deaths total ([5]; Gemcitabine 40 mg/kg IP Q3Dx4) was 0/9 and 0, the “Weight nadir % change” value ([5]; Gemcitabine 40 mg/kg IP Q3Dx4) was “No weight loss” and the Drug deaths total ([5]; Gemcitabine 80 mg/kg IP Q3Dx4) was 0/9 and 0. The “Weight nadir % change” value ([5]; Gemcitabine 80 mg/kg IP Q3Dx4) was −9% and the Weight nadir day ([5]; Gemcitabine 80 mg/kg IP Q3Dx4) was 11.

Reference: US9539303B2, “Treatment of Ras-expressing tumors” (Celgene Corporation, priority 2006, dated 2017)
